Source: patent US20250250251A1, “PIPERIDINYLPYRIDINYLCARBONITRILE DERIVATIVES AS INHIBITORS OF GLUTAMINYL-PEPTIDE CYCLOTRANSFERASE AND GLUTAMINYL-PEPTIDE CYCLOTRANSFERASE LIKE PROTEIN” (Boehringer Ingelheim International GmbH, priority 2024, published 2025)
pIC50: −log10 of the molar value.

Legend:
QPCTL = molecular target: T1, QPCTL (Homo sapiens, UniProt Q9NXS2); assay: Assay A: biochemical QPCTL activity assay (MALDI-TOF MS, CD47 peptide substrate); conditions: Table 3, prior art compounds, read-out: Inhibition of QPCTL: IC50
T1 construct: made in house
T1 sequence (Q9NXS2 whole entry, species assumed): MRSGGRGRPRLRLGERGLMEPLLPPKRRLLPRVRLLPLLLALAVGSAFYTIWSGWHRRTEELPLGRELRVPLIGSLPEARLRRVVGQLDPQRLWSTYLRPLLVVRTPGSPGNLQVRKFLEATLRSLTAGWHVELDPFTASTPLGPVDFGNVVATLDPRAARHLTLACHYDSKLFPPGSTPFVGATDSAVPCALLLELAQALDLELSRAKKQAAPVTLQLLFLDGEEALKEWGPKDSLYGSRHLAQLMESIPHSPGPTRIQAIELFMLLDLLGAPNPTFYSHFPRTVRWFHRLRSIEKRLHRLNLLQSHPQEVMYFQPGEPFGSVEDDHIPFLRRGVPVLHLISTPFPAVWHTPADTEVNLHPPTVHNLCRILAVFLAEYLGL
Method in brief: (§1)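 Enzyme and compound pre-incubated 10 min at 24° C in 20 mM Tris pH 7.5 with TCEP, BSA, Tween20, then 40 min with CD47 peptide (10 μM for QPCTL, 20 μM for QPCT). Pyroglutamate product/internal standard ratio by MALDI-TOF MS, normalized to controls; four-parameter logistic fit.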

QPCT = molecular target: T2, QPCT (Homo sapiens, UniProt Q16769); assay: Assay A: biochemical QPCT activity assay (MALDI-TOF MS, CD47 peptide substrate); conditions: Table 3, prior art compounds, read-out: Inhibition of QPCT: IC50
T2 construct: purchased Origine (OriGene) TP700028
T2 sequence (Q16769 29-361): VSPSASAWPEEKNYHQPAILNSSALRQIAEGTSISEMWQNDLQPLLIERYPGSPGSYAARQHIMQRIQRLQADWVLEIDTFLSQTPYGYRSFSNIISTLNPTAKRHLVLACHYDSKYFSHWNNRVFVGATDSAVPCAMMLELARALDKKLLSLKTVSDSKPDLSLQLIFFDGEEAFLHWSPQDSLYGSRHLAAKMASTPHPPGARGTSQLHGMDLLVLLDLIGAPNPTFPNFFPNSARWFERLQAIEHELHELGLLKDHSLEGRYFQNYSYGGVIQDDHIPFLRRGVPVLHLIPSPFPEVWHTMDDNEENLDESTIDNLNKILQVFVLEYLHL
Method in brief: as §1

[1] = system: SIRPα signalling induced by A549 cells; assay: Assay B: SIRPα signalling assay using A549 cells; type: cell-based; conditions: Homo sapiens, Table 5, prior art compounds, read-out: Inhibition of SIRPα signalling induced by A549 cells: IC50
Method in brief: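 Raji or A549 cells (5000/well) were each incubated with serially diluted compound for 48 h at 37 °C. Jurkat PathHunter SIRPαV1 reporter cells (15000/well) were then added for 5 h. Beta-galactosidase luminescence gave IC50 via a 4-parameter sigmoidal fit.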

[2] = Assay C: permeability in CACO-2 cells; type: in vitro ADME; conditions: human, Caco-2, pH 7.2
Method in brief: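 Caco-2 monolayers were grown 10–25 days on porous filter inserts. Compound was applied to the apical or basolateral donor side for A-B or B-A transport (3 filters), and the receiver was sampled for up to 2 h. Quantitation was by HPLC-MS/MS or scintillation; efflux ratio = B-A/A-B permeability.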

murine hepatocytes = assay: Assay E: stability in murine hepatocytes; type: in vitro ADME, mouse; conditions: Table 13, prior art compounds, 1 μM, 5% species serum
Method in brief: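 Cryopreserved mouse hepatocytes, typically 1 Mio cells/mL in medium with 5% species serum, were dosed at 1 μM compound (0.05% DMSO) at 37 °C and sampled over 0–6 h. Parent decline was measured by HPLC-MS/MS and CLint calculated from dose/AUC, then scaled by well-stirred liver model.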

isolated QPCTL = isolated QPCTL (Homo sapiens, UniProt Q9NXS2); conditions: as disclosed in WO 2024/020517; read-out: Inhibitory activity on isolated QPCTL, IC50; cited from earlier work
Sequence of isolated QPCTL (Q9NXS2 whole entry): as the sequence (Q9NXS2 whole entry, species assumed) above

[3] = system: cellular (Ramos) QPCTL activity; conditions: Ramos cells, as disclosed in WO 2024/020517; read-out: Inhibitory activity of cellular (Ramos) QPCTL activity in a FACS assay; cited from earlier work

**Q.** With `Cn1cnnc1C1CCN(c2c(-c3ccnnc3)ccc(Cl)c2C#N)CC1` [Compound 33, reference compound] as the compound, how does the pIC50 (QPCTL) read?
**A.** 9.00

**Q.** And the pIC50 (QPCT)?
**A.** 8.70

**Q.** What about the pIC50 [1] of the same compound?
**A.** 7.25

**Q.** What about the Papp A→B [2] of the same compound?
**A.** 0.2 ×10⁻⁶ cm/s

**Q.** What about the efflux ratio ([2]; read-out: Efflux Ratio) of the same compound?
**A.** 45.3

**Q.** What about the “Mouse Hepatocyte Stability QH” value (murine hepatocytes) of the same compound?
**A.** 45%

**Q.** What about the pIC50 (isolated QPCTL) of the same compound?
**A.** > 7.00

**Q.** And the pIC50 [3]?
**A.** > 7.00
